According to ChEMBL document CHEMBL4507260 (2021):

Legend:
Conditions in all cases: Compound concentration 1000.0 nM
[1] = biological target: Mitogen-activated protein kinase 14 (Homo sapiens) (UniProt Q16539)
[2] = system: Tyrosine-protein kinase ABL1 (Homo sapiens), P00519 [F317I]
[3] = biological target: Cyclin-dependent kinase 18 (Homo sapiens) (UniProt Q07002)
[4] = biological target: Tyrosine-protein kinase Mer (Homo sapiens) (UniProt Q12866)
[5] = biological target: Mitogen-activated protein kinase 8 (Homo sapiens) (UniProt P45983)
[6] = biological target: Mitogen-activated protein kinase 6 (Homo sapiens) (UniProt Q16659)
[7] = biological target: Serine/threonine-protein kinase MARK2 (Homo sapiens) (UniProt Q7KZI7)
[8] = biological target: Proto-oncogene tyrosine-protein kinase ROS (Homo sapiens) (UniProt P08922)
[9] = biological target: Serine/threonine-protein kinase MAK (Homo sapiens) (UniProt P20794)
[10] = biological target: Serine/threonine-protein kinase PAK 3 (Homo sapiens) (UniProt O75914)
Serine/threonine-protein kinase PAK 3 (Homo sapiens), sequence (O75914 whole entry, looked up): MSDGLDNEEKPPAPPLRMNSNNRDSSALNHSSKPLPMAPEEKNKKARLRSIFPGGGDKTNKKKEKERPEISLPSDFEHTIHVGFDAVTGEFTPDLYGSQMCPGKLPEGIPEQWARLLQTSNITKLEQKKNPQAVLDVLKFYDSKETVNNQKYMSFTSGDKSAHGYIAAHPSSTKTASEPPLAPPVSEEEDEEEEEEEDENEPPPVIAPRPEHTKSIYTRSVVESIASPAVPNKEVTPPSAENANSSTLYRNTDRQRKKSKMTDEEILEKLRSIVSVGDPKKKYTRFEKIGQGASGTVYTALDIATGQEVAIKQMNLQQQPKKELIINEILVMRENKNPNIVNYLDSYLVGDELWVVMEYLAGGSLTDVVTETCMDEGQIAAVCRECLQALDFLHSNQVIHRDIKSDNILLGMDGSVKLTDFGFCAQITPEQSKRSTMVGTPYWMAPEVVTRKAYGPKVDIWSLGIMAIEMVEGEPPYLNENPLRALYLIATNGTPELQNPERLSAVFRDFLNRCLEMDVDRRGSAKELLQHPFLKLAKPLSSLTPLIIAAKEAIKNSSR

[11] = biological target: cAMP-dependent protein kinase catalytic subunit PRKX (Homo sapiens) (UniProt P51817)
[12] = biological target: Phosphatidylinositol 4-phosphate 5-kinase type-1 gamma (Homo sapiens) (UniProt O60331)
[13] = biological target: Testis-specific serine/threonine-protein kinase 1 (Homo sapiens) (UniProt Q9BXA7)
[14] = biological target: NT-3 growth factor receptor (Homo sapiens) (UniProt Q16288)
[15] = biological target: Cyclin-G-associated kinase (Homo sapiens) (UniProt O14976)
[16] = biological target: Hormonally up-regulated neu tumor-associated kinase (Homo sapiens) (UniProt P57058)
Hormonally up-regulated neu tumor-associated kinase (Homo sapiens), sequence (P57058 whole entry): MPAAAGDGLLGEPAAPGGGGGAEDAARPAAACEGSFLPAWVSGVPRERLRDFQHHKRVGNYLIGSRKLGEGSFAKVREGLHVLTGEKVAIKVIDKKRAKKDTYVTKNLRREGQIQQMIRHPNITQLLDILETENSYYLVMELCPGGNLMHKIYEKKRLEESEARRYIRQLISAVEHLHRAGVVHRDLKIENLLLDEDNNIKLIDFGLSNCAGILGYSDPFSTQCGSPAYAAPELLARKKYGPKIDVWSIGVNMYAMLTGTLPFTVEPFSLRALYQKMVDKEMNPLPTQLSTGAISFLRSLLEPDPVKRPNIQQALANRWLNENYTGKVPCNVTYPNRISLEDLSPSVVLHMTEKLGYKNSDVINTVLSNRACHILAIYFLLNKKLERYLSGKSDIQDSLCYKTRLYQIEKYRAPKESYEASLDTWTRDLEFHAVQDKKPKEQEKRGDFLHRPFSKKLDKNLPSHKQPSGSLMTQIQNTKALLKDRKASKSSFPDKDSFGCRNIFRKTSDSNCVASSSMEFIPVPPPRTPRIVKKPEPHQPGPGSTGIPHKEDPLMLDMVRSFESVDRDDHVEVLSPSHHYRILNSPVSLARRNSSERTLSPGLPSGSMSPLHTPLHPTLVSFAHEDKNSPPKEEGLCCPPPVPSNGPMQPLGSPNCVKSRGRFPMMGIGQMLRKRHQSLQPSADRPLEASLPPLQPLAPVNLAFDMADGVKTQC

[17] = biological target: Serine/threonine-protein kinase ULK3 (Homo sapiens) (UniProt Q6PHR2)
[18] = biological target: Myosin-IIIb (Homo sapiens) (UniProt Q8WXR4)
[19] = biological target: Serine/threonine-protein kinase LATS2 (Homo sapiens) (UniProt Q9NRM7)
[20] = biological target: Cyclin-dependent kinase-like 2 (Homo sapiens) (UniProt Q92772)
[21] = biological target: Fibroblast growth factor receptor 3 (Homo sapiens) (UniProt P22607)
[22] = biological target: Aurora kinase B (Homo sapiens) (UniProt Q96GD4)
[23] = biological target: Tyrosine-protein kinase ITK/TSK (Homo sapiens) (UniProt Q08881)
[24] = biological target: Serine/threonine-protein kinase NLK (Homo sapiens) (UniProt Q9UBE8)
[25] = system: Phosphatidylinositol 4,5-bisphosphate 3-kinase catalytic subunit alpha isoform (Homo sapiens), P42336 [E545A]
[26] = biological target: Tyrosine-protein kinase Blk (Homo sapiens) (UniProt P51451)
[27] = biological target: Serine/threonine-protein kinase haspin (Homo sapiens) (UniProt Q8TF76)
[28] = system: Fibroblast growth factor receptor 3 (Homo sapiens), P22607 [G697C]
[29] = biological target: Serine/threonine-protein kinase 25 (Homo sapiens) (UniProt O00506)
[30] = biological target: Tyrosine-protein kinase HCK (Homo sapiens) (UniProt P08631)
[31] = biological target: Dual specificity tyrosine-phosphorylation-regulated kinase 2 (Homo sapiens) (UniProt Q92630)
[32] = biological target: Tyrosine-protein kinase ABL2 (Homo sapiens) (UniProt P42684)
Tyrosine-protein kinase ABL2 (Homo sapiens), sequence (P42684 whole entry): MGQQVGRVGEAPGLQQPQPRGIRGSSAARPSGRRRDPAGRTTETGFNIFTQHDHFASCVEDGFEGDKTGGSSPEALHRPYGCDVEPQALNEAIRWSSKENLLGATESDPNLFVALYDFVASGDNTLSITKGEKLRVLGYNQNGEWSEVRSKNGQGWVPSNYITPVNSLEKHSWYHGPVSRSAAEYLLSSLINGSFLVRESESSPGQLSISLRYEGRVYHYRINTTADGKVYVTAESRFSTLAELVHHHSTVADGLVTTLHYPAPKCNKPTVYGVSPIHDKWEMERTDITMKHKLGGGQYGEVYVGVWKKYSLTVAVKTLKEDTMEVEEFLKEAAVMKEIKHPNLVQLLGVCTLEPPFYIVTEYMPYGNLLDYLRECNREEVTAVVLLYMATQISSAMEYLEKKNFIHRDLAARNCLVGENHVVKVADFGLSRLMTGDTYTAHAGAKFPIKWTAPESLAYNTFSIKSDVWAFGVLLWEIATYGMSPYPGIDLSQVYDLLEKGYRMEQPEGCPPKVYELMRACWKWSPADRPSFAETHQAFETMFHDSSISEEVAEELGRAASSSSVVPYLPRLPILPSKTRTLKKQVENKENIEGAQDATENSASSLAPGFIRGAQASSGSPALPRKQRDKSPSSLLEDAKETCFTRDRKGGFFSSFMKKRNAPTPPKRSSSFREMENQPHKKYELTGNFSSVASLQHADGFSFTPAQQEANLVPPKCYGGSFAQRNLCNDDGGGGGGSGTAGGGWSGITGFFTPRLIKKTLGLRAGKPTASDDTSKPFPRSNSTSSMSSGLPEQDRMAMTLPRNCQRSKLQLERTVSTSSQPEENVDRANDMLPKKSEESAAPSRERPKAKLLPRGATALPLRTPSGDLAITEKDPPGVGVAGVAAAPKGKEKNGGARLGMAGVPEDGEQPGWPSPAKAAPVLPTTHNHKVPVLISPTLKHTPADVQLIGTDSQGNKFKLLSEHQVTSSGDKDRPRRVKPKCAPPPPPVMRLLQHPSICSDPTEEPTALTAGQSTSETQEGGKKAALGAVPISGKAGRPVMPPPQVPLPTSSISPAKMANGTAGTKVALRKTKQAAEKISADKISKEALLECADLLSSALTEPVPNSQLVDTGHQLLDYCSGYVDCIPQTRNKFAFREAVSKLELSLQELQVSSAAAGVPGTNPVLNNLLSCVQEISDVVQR

[33] = biological target: Serine/threonine-protein kinase 24 (Homo sapiens) (UniProt Q9Y6E0)
[34] = biological target: Non-receptor tyrosine-protein kinase TYK2 (Homo sapiens) (UniProt P29597)
Non-receptor tyrosine-protein kinase TYK2 (Homo sapiens), sequence (P29597 whole entry, canonical isoform): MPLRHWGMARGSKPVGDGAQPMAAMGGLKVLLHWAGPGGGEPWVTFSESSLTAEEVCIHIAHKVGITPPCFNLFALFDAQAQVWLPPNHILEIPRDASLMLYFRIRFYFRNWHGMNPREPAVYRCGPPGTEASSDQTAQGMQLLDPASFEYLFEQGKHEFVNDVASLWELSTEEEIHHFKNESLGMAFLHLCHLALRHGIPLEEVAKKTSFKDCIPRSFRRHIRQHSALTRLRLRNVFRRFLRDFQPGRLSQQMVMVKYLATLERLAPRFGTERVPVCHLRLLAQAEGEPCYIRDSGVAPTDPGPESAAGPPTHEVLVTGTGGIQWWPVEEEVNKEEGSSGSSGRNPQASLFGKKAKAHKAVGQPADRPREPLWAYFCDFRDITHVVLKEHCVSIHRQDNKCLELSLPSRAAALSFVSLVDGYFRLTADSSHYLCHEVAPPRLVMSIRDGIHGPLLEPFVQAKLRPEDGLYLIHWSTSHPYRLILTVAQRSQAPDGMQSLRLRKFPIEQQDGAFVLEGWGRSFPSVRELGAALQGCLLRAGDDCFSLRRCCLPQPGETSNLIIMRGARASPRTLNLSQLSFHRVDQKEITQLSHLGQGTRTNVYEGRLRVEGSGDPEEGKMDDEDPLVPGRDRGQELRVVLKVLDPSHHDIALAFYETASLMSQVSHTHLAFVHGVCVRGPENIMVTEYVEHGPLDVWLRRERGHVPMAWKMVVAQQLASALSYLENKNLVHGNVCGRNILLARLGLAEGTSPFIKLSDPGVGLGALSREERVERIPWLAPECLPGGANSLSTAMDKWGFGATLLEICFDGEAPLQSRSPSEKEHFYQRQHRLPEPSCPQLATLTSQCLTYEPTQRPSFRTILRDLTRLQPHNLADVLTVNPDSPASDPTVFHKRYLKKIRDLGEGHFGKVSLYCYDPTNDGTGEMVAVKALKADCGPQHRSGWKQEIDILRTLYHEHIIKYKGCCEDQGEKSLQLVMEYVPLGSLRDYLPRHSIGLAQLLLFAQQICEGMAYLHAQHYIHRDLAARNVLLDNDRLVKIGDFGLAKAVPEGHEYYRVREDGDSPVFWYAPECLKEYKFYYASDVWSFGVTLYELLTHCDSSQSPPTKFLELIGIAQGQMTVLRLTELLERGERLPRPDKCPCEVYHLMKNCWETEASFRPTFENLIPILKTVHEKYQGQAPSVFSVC

[35] = system: Phosphatidylinositol 4,5-bisphosphate 3-kinase catalytic subunit alpha isoform (Homo sapiens), P42336 [C420R]
[36] = biological target: Mitogen-activated protein kinase kinase kinase 10 (Homo sapiens) (UniProt Q02779)
[37] = biological target: Ephrin type-A receptor 5 (Homo sapiens) (UniProt P54756)
[38] = biological target: Ribosomal protein S6 kinase alpha-4 (Homo sapiens) (UniProt O75676)
Ribosomal protein S6 kinase alpha-4 (Homo sapiens), sequence (O75676 whole entry, looked up): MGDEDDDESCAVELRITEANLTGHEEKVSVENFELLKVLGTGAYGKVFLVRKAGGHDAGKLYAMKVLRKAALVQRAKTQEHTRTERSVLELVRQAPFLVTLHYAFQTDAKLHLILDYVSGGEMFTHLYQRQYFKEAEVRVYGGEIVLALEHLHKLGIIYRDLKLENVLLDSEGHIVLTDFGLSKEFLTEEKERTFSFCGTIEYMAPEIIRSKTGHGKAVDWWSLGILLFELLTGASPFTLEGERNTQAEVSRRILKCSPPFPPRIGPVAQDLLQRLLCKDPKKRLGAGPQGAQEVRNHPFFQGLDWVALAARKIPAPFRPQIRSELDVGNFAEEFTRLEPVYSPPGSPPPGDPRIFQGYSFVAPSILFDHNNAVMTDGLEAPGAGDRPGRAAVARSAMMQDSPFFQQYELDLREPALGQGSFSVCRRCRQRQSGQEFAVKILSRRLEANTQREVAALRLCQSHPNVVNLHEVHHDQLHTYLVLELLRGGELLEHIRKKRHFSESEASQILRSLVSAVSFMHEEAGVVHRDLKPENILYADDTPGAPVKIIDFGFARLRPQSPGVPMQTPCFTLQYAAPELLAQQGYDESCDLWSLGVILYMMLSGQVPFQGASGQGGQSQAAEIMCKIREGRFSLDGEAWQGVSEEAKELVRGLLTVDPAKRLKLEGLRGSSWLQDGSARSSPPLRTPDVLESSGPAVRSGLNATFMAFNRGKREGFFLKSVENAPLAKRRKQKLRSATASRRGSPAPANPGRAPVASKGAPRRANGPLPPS

[39] = biological target: Serine/threonine-protein kinase Nek7 (Homo sapiens) (UniProt Q8TDX7)
[40] = biological target: Cyclin-dependent kinase 5 (Homo sapiens) (UniProt Q00535)
[41] = biological target: Tyrosine-protein kinase TXK (Homo sapiens) (UniProt P42681)
Tyrosine-protein kinase TXK (Homo sapiens), sequence (P42681 whole entry): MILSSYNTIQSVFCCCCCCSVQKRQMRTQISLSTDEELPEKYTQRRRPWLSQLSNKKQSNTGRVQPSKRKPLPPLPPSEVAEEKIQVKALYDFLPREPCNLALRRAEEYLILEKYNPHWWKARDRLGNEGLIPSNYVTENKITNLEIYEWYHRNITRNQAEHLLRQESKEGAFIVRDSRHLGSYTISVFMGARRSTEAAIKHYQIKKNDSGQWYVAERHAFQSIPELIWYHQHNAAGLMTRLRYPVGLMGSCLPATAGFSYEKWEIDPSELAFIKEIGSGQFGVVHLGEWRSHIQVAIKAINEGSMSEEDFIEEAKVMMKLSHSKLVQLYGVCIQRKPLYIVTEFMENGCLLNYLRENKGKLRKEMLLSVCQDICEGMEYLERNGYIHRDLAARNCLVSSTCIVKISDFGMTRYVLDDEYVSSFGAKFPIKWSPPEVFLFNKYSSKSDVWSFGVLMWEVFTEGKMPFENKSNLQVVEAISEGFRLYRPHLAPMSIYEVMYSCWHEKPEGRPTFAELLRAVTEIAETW

[42] = biological target: Ribosomal protein S6 kinase alpha-3 (Homo sapiens) (UniProt P51812)
[43] = system: Epidermal growth factor receptor (Homo sapiens), P00533 [UNDEFINED MUTATION]
[44] = biological target: Serine/threonine-protein kinase TAO3 (Homo sapiens) (UniProt Q9H2K8)
[45] = biological target: Non-receptor tyrosine-protein kinase TNK1 (Homo sapiens) (UniProt Q13470)

Measured: residual activity

CSc1cccnc1N1CCN(Cc2nc3ccccc3[nH]2)CC1 [A-769]
inactive: [1] 100% | [2] 100% | [3] 100% | [4] 80% | [5] 77% | [6] 100% | [7] 100% | [8] 100% | [9] 100% | [10] 87% | [11] 100% | [12] 100% | [13] 100% | [14] 83% | [15] 99% | [16] 100% | [17] 81% | [18] 100% | [19] 94% | [20] 84% | [21] 100% | [22] 67% | [23] 97% | [24] 100% | [25] 96% | [26] 96% | [27] 100% | [28] 100% | [29] 100% | [30] 82% | [31] 81% | [32] 98% | [33] 100% | [34] 84% | [35] 100% | [36] 100% | [37] 100% | [38] 94% | [39] 100% | [40] 99% | [41] 100% | [42] 83% | [43] 100% | [44] 93% | [45] 84%

c1ccc(N2CCN(Cc3nc4ccccc4[nH]3)CC2)nc1 [ABT-724]
active: [22] 18%
inactive: [1] 89% | [2] 100% | [3] 94% | [4] 90% | [5] 100% | [6] 100% | [7] 100% | [8] 100% | [9] 100% | [10] 100% | [11] 100% | [12] 93% | [13] 100% | [14] 87% | [15] 100% | [16] 100% | [17] 100% | [18] 95% | [19] 75% | [20] 100% | [21] 96% | [23] 100% | [24] 100% | [25] 87% | [26] 100% | [27] 100% | [28] 100% | [29] 94% | [30] 100% | [31] 100% | [32] 100% | [33] 100% | [34] 100% | [35] 100% | [36] 93% | [37] 100% | [38] 100% | [39] 100% | [40] 100% | [41] 95% | [42] 100% | [43] 100% | [44] 86% | [45] 59%
